Data published in patent US10526294B2, “Pyrrolobenzodiazepines and conjugates thereof” (priority 2016, dated 2020).

Legend:
Type in all cases: cell-based
MCF7 cells = assay: Cell viability assay (CellTiter-Glo), MCF7; conditions: Homo sapiens, HER2 low expressing levels cells, 72 h
Procedure: (§1) Cell Viability Assay for Antibody-Polymer-Drug Conjugates.
(§2) PBD compounds and conjugates thereof were evaluated for their antiproliferation properties in tumor cell lines in vitro using CellTiter-Glo® (Promega Corp). Cells were plated in black walled 96-well plate and allowed to adhere overnight at 37° C. in a humidified atmosphere of 5% CO2. BT474, SKBR3, NCI-N87 cells (HER2 expressing cells), JIMT1 cells (HER2 medium expression level cells) and MCF7 cells (HER2 low expressing levels cells) and were plated at a density of 5,000 cells per well. The next day the medium was replaced with 50 μL fresh medium and 50 μL of 2× stocks of PBD compounds or antibody-PBD conjugate were added to appropriate wells, mixed and incubated for 72 h. CellTiter-Glo® reagent was added to the wells at room temperature and the luminescent signal was measured after 10 min using a SpectraMax M5 plate reader (Molecular Devices). Dose response curves were generated using SoftMax Pro software. IC50 values were determined from four-parameter curve fitting.

JIMT1 cells = assay: Cell viability assay (CellTiter-Glo), JIMT1; conditions: Homo sapiens, JIMT-1, HER2 medium expression level cells, 72 h
Procedure: as §1, §2

BT474 cells = assay: Cell viability assay (CellTiter-Glo), BT474; conditions: Homo sapiens, BT-474, HER2 expressing cells, 72 h
Procedure: as §1, §2

NCI-N87 cells = assay: Cell viability assay (CellTiter-Glo), NCI-N87; conditions: Homo sapiens, HER2 expressing cells, 72 h
Procedure: as §1, §2

SKBR3 cells = assay: Cell viability assay (CellTiter-Glo), SKBR3; conditions: Homo sapiens, SK-BR-3, HER2 expressing cells, 72 h
Procedure: as §1, §2

SMILES	IC50 (MCF7 cells; PBD compounds (Table I)) [nM]	IC50 (JIMT1 cells; PBD compounds (Table I)) [nM]	IC50 (BT474 cells; PBD compounds (Table I)) [nM]	IC50 (NCI-N87 cells; PBD compounds (Table I)) [nM]	IC50 (SKBR3 cells; PBD compounds (Table I)) [nM]	IC50 (MCF7 cells; conjugates (Table II)) [nM]	IC50 (JIMT1 cells; conjugates (Table II)) [nM]	IC50 (BT474 cells; conjugates (Table II)) [nM]	IC50 (NCI-N87 cells; conjugates (Table II)) [nM]	IC50 (SKBR3 cells; conjugates (Table II)) [nM]
C=C1C[C@H]2C=Nc3cc(OCCCC(=O)Nc4cn(C)c(C(=O)Nc5ccc(-c6cc(C(=O)NC[C@H](C)O)n(C)c6)cc5)n4)c(OC)cc3C(=O)N2C1 [Compound 42, N-(4-(5-((S)-2-hydroxypropylcarbamoyl)-1-methyl-1H-pyrrol-3-yl)phenyl)-4-(4-((S,Z)-7-methoxy-2-methylene-5-oxo-2,3,5,11a-tetrahydro-1H-benzo[e]pyrrolo[1,2-a][1,4]diazepin-8-yloxy)butanamido)-1-methyl-1H-imidazole-2-carboxamide]	4.5	1.2	5.1	1.4	1.4					
C=C1C[C@H]2C=Nc3cc(OCCCC(=O)Nc4cn(C)c(C(=O)Nc5ccc(-c6cc(C(=O)OCCCN)n(C)c6)cc5)n4)c(OC)cc3C(=O)N2C1 [Compound 41, (S,Z)-3-aminopropyl 4-(4-(4-(4-(7-methoxy-2-methylene-5-oxo-2,3,5,11a-tetrahydro-1H-benzo[e]pyrrolo[1,2-a][1,4]diazepin-8-yloxy)butanamido)-1-methyl-1H-imidazole-2-carboxamido)phenyl)-1-methyl-1H-pyrrole-2-carboxylate]	140	0.8	300	6.3	3					
C=C1C[C@H]2C=Nc3cc(OCCCC(=O)Nc4cn(C)c(C(=O)Nc5ccc(-c6nc7ccc(N)cc7[nH]6)cc5)n4)c(OC)cc3C(=O)N2C1 [Compound 9, (S,Z)—N-(4-(5-amino-1H-benzo[d]imidazol-2-yl)phenyl)-4-(4-(7-methoxy-2-methylene-5-oxo-2,3,5,11a-tetrahydro-1H-benzo[e]pyrrolo[1,2-a][1,4]diazepin-8-yloxy)butanamido)-1-methyl-1H-imidazole-2-carboxamide]	1.6	0.7	4	0.9	0.3					
C=C1C[C@H]2C=Nc3cc(OCCCC(=O)Nc4cn(C)c(C(=O)Nc5ccc(-c6cc7cc(N)ccc7[nH]6)cc5)n4)c(OC)cc3C(=O)N2C1 [Compound 18, (S)—N-(4-(5-amino-1H-indol-2-yl)phenyl)-4-(4-((7-methoxy-2-methylene-5-oxo-2,3,5,11a-tetrahydro-1H-benzo[e]pyrrolo[1,2-a][1,4]diazepin-8-yl)oxy)butanamido)-1-methyl-1H-imidazole-2-carboxamide]	0.7	0.2	0.5	0.2	0.08					
COc1cc2c(cc1OCCCC(=O)Nc1cn(C)c(C(=O)Nc3ccc(-c4cc(C(=O)O)n(C)c4)cc3)n1)N=C[C@@H]1CCCN1C2=O [Compound 44, (S,Z)-4-(4-(4-(4-(7-methoxy-5-oxo-2,3,5,11a-tetrahydro-1H-benzo[e]pyrrolo[1,2-a][1,4]diazepin-8-yloxy)butanamido)-1-methyl-1H-imidazole-2-carboxamido)phenyl)-1-methyl-1H-pyrrole-2-carboxylic acid]	560	109	1000	105	53					
C=C1C[C@H]2C=Nc3cc(OCCCC(=O)Nc4cn(C)c(C(=O)Nc5cc(C(=O)Nc6ccc(-c7nc8cc(N)ccc8[nH]7)cc6)n(C)c5)n4)c(OC)cc3C(=O)N2C1 [Compound 24, (S,Z)—N-(5-(4-(5-amino-1H-benzo[d]imidazol-2-yl)phenylcarbamoyl)-1-methyl-1H-pyrrol-3-yl)-4-(4-(7-methoxy-2-methylene-5-oxo-2,3,5,11a-tetrahydro-1H-benzo[e]pyrrolo[1,2-a][1,4]diazepin-8-yloxy)butanamido)-1-methyl-1H-imidazole-2-carboxamide]	34	1.8	21	3	1					
C=C1CC2C=Nc3cc(OCCCC(=O)Nc4cn(C)c(C(=O)Nc5ccc(-c6cc(C(=O)n7ccc8cc(C(=O)OC)ccc87)n(C)c6)cc5)n4)c(OC)cc3C(=O)N2C1 (stereo not shown) [Compound 109, methyl 1-(4-(4-(4-(4-((7-methoxy-2-methylene-5-oxo-2,3,5,11a-tetrahydro-1H-benzo[e]pyrrolo[1,2-a][1,4]diazepin-8-yl)oxy)butanamido)-1-methyl-1H-imidazole-2-carboxamido)phenyl)-1-methyl-1H-pyrrole-2-carbonyl)-1H-indole-5-carboxylate]						0.18	0.28	0.09	0.14	
C=C1CC2C=Nc3cc(OCCCC(=O)Nc4cn(C)c(C(=O)Nc5ccc(-c6nc7ccc(C(=O)OC)cc7[nH]6)cc5)n4)c(OC)cc3C(=O)N2C1 (stereo not shown) [Compound 33, (Z)-methyl 2-(4-(4-(4-(7-methoxy-2-methylene-5-oxo-2,3,5,11a-tetrahydro-1H-benzo[e]pyrrolo[1,2-a][1,4]diazepin-8-yloxy)butanamido)-1-methyl-1H-imidazole-2-carboxamido)phenyl)-1H-benzo[d]imidazole-6-carboxylate]	3.4	0.3	3.1	0.9	0.3					
C=C1CC2C=Nc3cc(OCCCC(=O)Nc4cn(C)c(C(=O)Nc5ccc(-c6cc(C(=O)n7ccc8cc(N)ccc87)n(C)c6)cc5)n4)c(OC)cc3C(=O)N2C1 (stereo not shown) [Compound 105, (Z)—N-(4-(5-(5-amino-1H-indole-1-carbonyl)-1-methyl-1H-pyrrol-3-yl)phenyl)-4-(4-(7-methoxy-2-methylene-5-oxo-2,3,5,11a-tetrahydro-1H-benzo[e]pyrrolo[1,2-a][1,4]diazepin-8-yloxy)butanamido)-1-methyl-1H-imidazole-2-carboxamide]						0.03	0.04	0.09	0.03	0.007
C=C1C[C@H]2C=Nc3cc(OCCCC(=O)Nc4cn(C)c(C(=O)Nc5ccc(-c6cc(C(=O)NCCCO)n(C)c6)cc5)n4)c(OC)cc3C(=O)N2C1 [Compound 39, (S)—N-(4-(5-((3-hydroxypropyl)carbamoyl)-1-methyl-1H-pyrrol-3-yl)phenyl)-4-(4-((7-methoxy-2-methylene-5-oxo-2,3,5,11a-tetrahydro-1H-benzo[e]pyrrolo[1,2-a][1,4]diazepin-8-yl)oxy)butanamido)-1-methyl-1H-imidazole-2-carboxamide]		0.9	2.4	0.4	0.6					
COc1cc2c(cc1OCCCC(=O)Nc1cc(C(=O)Nc3ccc(-c4cc(C(=O)NCCCO)n(C)c4)cc3)n(C)c1)N=C[C@@H]1CCCN1C2=O [Compound 38, (S,Z)—N-(3-hydroxypropyl)-4-(4-(4-(4-(7-methoxy-5-oxo-2,3,5,11a-tetrahydro-1H-benzo[e]pyrrolo[1,2-a][1,4]diazepin-8-yloxy)butanamido)-1-methyl-1H-pyrrole-2-carboxamido)phenyl)-1-methyl-1H-pyrrole-2-carboxamide]	8	3	7	4	2					
C=C1C[C@H]2C=Nc3cc(OCCCC(=O)Nc4cn(C)c(C(=O)Nc5ccc(-c6cc(C(=O)O)n(C)c6)cc5)n4)c(OC)cc3C(=O)N2C1 [Compound 43, (S,Z)-4-(4-(4-(4-(7-methoxy-2-methylene-5-oxo-2,3,5,11a-tetrahydro-1H-benzo[e]pyrrolo[1,2-a][1,4]diazepin-8-yloxy)butanamido)-1-methyl-1H-imidazole-2-carboxamido)phenyl)-1-methyl-1H-pyrrole-2-carboxylic acid]	250	33.2	34.3	12	8.2					
C=C1CC2C=Nc3cc(OCCCC(=O)Nc4cn(C)c(C(=O)Nc5ccc(-c6cc(C(=O)n7ccc8cc(OC)ccc87)n(C)c6)cc5)n4)c(OC)cc3C(=O)N2C1 (stereo not shown) [Compound 107, (Z)—N-(4-(5-(5-methoxy-1H-indole-1-carbonyl)-1-methyl-1H-pyrrol-3-yl)phenyl)-4-(4-(7-methoxy-2-methylene-5-oxo-2,3,5,11a-tetrahydro-1H-benzo[e]pyrrolo[1,2-a][1,4]diazepin-8-yloxy)butanamido)-1-methyl-1H-imidazole-2-carboxamide]						0.07	0.03	0.16	0.03	0.02
C=C1C[C@H]2C=Nc3cc(OCCCC(=O)Nc4cn(C)c(C(=O)Nc5ccc(-c6cc7cc(OC)ccc7[nH]6)cc5)n4)c(OC)cc3C(=O)N2C1 [Compound 108, (S,Z)—N-(4-(5-methoxy-1H-indol-2-yl)phenyl)-4-(4-(7-methoxy-2-methylene-5-oxo-2,3,5,11a-tetrahydro-1H-benzo[e]pyrrolo[1,2-a][1,4]diazepin-8-yloxy)butanamido)-1-methyl-1H-imidazole-2-carboxamide]						0.43		0.02	0.04	0.05
